In patent publication US5998435A, “Use of a tachykinin antagonist for the manufacture of a medicament for the treatment of emesis” (priority 1998, dated 1999):

What was measured:
[1] = molecular target: T1, NK1 receptor (Meriones unguiculatus, UniProt Q5DUB1); details: administered systemically 30 minutes before [Sar9,Met(O2)11]-substance P; cited from earlier work
T1 construct: centrally NK1 receptor mediated foot-tapping response was examined in the gerbil; from tissue; host or cells: whole animal (gerbil), central NK1 receptors, i.c.v. agonist
T1 sequence (Q5DUB1 whole entry): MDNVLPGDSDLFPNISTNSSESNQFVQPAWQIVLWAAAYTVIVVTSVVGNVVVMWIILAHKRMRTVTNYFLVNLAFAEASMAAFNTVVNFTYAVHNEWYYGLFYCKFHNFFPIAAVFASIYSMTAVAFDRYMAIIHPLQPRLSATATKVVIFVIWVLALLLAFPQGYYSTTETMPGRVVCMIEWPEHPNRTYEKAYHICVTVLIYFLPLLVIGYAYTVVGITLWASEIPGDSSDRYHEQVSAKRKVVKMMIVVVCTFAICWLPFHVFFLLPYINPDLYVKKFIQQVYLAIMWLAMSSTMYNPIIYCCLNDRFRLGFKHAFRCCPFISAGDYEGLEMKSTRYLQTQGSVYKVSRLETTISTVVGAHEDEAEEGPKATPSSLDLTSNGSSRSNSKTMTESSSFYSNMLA

[2] = test system: cisplatin-induced emesis; assay: Cisplatin-induced acute emesis in the ferret; assay type: in vivo; details: ferret
Excerpt: Adult male albino Fitch ferrets (>1 kg weight) were individually housed with free access to food (SDS Diet "C", Special Diet Services Ltd, Essex, U.K.). Thirty minutes prior to the commencement of the studies, the ferrets were presented with 100 g of commercially available tinned cat food.

[3] = molecular target: T1, NK1 receptor; assay: [Sar9,Met(O2)11]substance P-induced hind foot tapping in the gerbil; assay type: in vivo
Description: FIG. 3. […] The duration of foot tapping (sec) was recorded for 5 minutes immediately following recovery of the animals righting reflex.
Gerbils were anaesthetized with isoflurane, and an incision was made to expose the skull. […] Animals were placed individually into observation boxes, and duration of hind foot tapping was recorded for 5 minutes immediately following recovery of the animals' righting reflex.

[4] = test system: cisplatin-induced emesis; details: cisplatin 5 mg/kg i.p.
[5] = The Compound 10 mg/kg or ondansetron 1 mg/kg i.p. three times a day

COc1ccccc1CN[C@H]1CCCN[C@H]1c1ccccc1 [CP-99,994]
inhibition of the foot-tapping response [1]: dose-dependentlyinhibit

CN(C)CC(=O)OCC(NC(=O)C(C)(Cc1c[nH]c2ccccc12)NC(=O)OCc1cc2ccccc2o1)c1ccccc1 (stereo not shown) [Compound 2, Dimethylamino-acetic acid 2-[2-(benzofuran-2-ylmethoxycarbonylamino)-3-(1H-indol-3-yl)-2-methyl-propionylamino]-2-phenyl-ethyl ester]
block of cisplatin-induced emesis [2]: inability
block of the foot-tapping response, s.c. ([3]; 1-100 mg/kg s.c.): failed to block
MED, antagonism of foot-tapping response, i.c.v. ([3]; i.c.v. administration): 10 μg/animal

Cc1nccn1CC1CCc2c(c3ccccc3n2C)C1=O (stereo not shown) [ondansetron]
delayed emesis during the 3 days (3-72 hours) [4, 5]: much lower activity
retching and vomiting during the first 3 hours of the emetic response (acute) [4, 5]: completely blocked
effect during the start of the delayed response (Day 1, 3-24 hours) ([4]; ondansetron 1 mg/kg i.p. tid): failed to show any effect
